Laboratory results taken from patent US6589914B2, “Dihalopropene compounds, insecticidal/acaridcidal agents containing same, and intermediates for their production” (Sumitomo Chemical Company, Limited, priority 1994, dated 2003).
Where two headings read alike, the source gives them in different places.

Tests used:
[1] = system: Spodoptera litura; experiment: Insecticidal test against Spodoptera litura (treated artificial diet); type: in vivo; details: 144 h, active ingredient at 500 ppm, 2 ml in 13 g artificial diet, fourth-instar larvae, after 6 days
Procedure: A 200-fold dilution containing an active ingredient at 500 ppm, which had been prepared by diluting with water an emulsifiable concentrate of the test compound obtained according to Formulation Example 1, was absorbed at a volume of 2 ml in 13 g of an artificial diet for Spodoptera litura, which had been prepared in a polyethylene cup having a diameter of 11 cm. Ten fourth-instar larvae of Spodoptera litura were set free in the cup. After 6 days, the survival of larvae was examined to determine the mortality. The test was conducted in duplicate.

[2] = system: Tetranychus urticae Koch; experiment: Test against Tetranychus urticae Koch (spray and soil drench on potted bean); type: in vivo; details: active ingredient at 500 ppm, 15 ml sprayed per pot plus 2 ml soil drench, after 8 days
Procedure: Ten female adults of Tetranychus urticae Koch per one leaf were allowed to parasitize to a potting bean at the primary leaf stage harvested for 7 days after seeding, and these pots were placed in a thermostated room at 25° C. After 6 days, a chemical solution containing an active ingredient at 500 ppm, which had been prepared by diluting with water an emulsifiable concentrate of the test compound obtained according to Formulation Example 1, was sprayed at a volume of 15 ml over each pot on a turntable. At the same time, 2 ml of the same solution was drenched in the soil. After 8 days, the degree of damage on the respective plants caused by Tetranychus urticae Koch was examined. The effects were determined according to the following criteria:
−: Damage is scarcely observed.
+: Damage is slightly observed.
++: Damage is observed at the same level as in the non-treated field.

[3] = system: Heliothis virescens; experiment: Insecticidal test against Heliothis virescens (treated artificial diet); type: in vivo; details: 144 h
Procedure: A dilution containing an active ingredient at 100 ppm, which had been prepared by diluting with water an emulsifiable concentrate of the test compound obtained according to Formulation Example 1, was incorporated at a volume of 0.2 ml in an artificial diet. A second-instar larva of H. virescens was given the diet and bred in a plastic vessel. Ten insects were used by each treatment. After 6 days, the mortality was determined.

[4] = system: Plutella xylostella; experiment: Insecticidal test against Plutella xylostella (spray on potted cabbage); type: in vivo; details: 96 h
Procedure: A chemical solution containing an active ingredient at 50 ppm, which had been prepared by diluting an emulsifiable concentrate of the test compound obtained according to Formulation Example 1 with water containing spreading agent RINOU (Nihon Nouyaku K.K.) to a degree such that the spreading agent had been 1000-fold diluted, was sprayed at a volume 25 ml over each pot of a potting cabbage at the five leaf stage. The treated plants were air dried, on which ten third-instar larvae of Plutella xylostella were set free. After 4 days, the mortality was determined.

[5] = active ingredient at 50 ppm, 25 ml sprayed per pot of cabbage, third-instar larvae, after 4 days, read-out: mortality
[6] = active ingredient at 100 ppm, 0.2 ml in artificial diet, second-instar larva, after 6 days, read-out: mortality

| melting point [°C] | SMILES | degree of damage on the plants caused by Tetranychus urticae Koch [2] | also measured |
| --- | --- | --- | --- |
| – | ClC(Cl)=CCOc1cc(Cl)c(OCc2ccc(Cl)nc2)c(Cl)c1 [Compound 1, 3,5-Dichloro-4-(6-chloro-3-pyridylmethyloxy)-1-(3,3-dichloro-2-propenyloxy)benzene] | “−” or “+” | mortality at 500 ppm [1]: ≥ 80% |
| – | ClC(Cl)=CCOc1cc(Cl)c(OCc2ccc(Cl)nc2Cl)c(Cl)c1 [Compound 2, 3,5-Dichloro-4-(2,6-dichloro-3-pyridylmethyloxy)-1-(3,3-dichloro-2-propenyloxy)benzene] | – | mortality at 500 ppm [1]: ≥ 80% |
| 48.2 | ClC(Cl)=CCOc1cc(Cl)c(OCc2ccccn2)c(Cl)c1 [Compound 5, 3,5-Dichloro-4-(2-pyridylmethyloxy)-1-(3,3-dichloro-2-propenyloxy)benzene] | – | – |
| 44.6 | ClC(Cl)=CCOc1cc(Cl)c(OCc2cccs2)c(Cl)c1 [Compound 6, 3,5-Dichloro-4-(2-thienylmethyloxy)-1-(3,3-dichloro-2-propenyloxy)benzene] | – | – |
| 46 | ClC(Cl)=CCOc1cc(Cl)c(OCc2ccco2)c(Cl)c1 [Compound 7, 3,5-Dichloro-4-(2-furanylmethyloxy)-1-(3,3-dichloro-2-propenyloxy)benzene] | “−” or “+” | – |
| 105.9 | ClC(Cl)=CCOc1cc(Cl)c(OCc2cccnc2)c(Cl)c1 [Compound 8, 3,5-Dichloro-4-(3-pyridylmethyloxy)-1-(3,3-dichloro-2-propenyloxy)benzene] | – | – |
| 74 | ClC(Cl)=CCOc1cc(Cl)c(OCc2ccncc2)c(Cl)c1 [Compound 9, 3,5-Dichloro-4-(4-pyridylmethyloxy)-1-(3,3-dichloro-2-propenyloxy)benzene] | – | – |
| – | ClC(Cl)=CCOc1cc(Cl)c(OCCc2cccs2)c(Cl)c1 [Compound 10, 3,5-Dichloro-4-(2-(2-thienyl)ethoxy)-1-(3,3-dichloro-2-propenyloxy)benzene] | “−” or “+” | – |
| 30.4 | CN1C=CSC1CCOc1c(Cl)cc(OCC=C(Cl)Cl)cc1Cl (stereo not shown) [Compound 11, 3,5-Dichloro-4-(2-(3-methylthiazol-2-yl)ethoxy)-1-(3,3-dichloro-2-propenyloxy)benzene] | – | – |
| – | ClC(Cl)=CCOc1cc(Cl)c(OCCc2ccsc2)c(Cl)c1 [Compound 14, 3,5-Dichloro-4-(2-(3-thienyl)ethoxy)-1-(3,3-dichloro-2-propenyloxy)benzene] | – | mortality at 500 ppm [1]: ≥ 80% |
| – | ClC(Cl)=CCOc1cc(Cl)c(OCCCc2ccncc2)c(Cl)c1 [Compound 15, 3,5-Dichloro-4-(3-(4-pyridyl)propyloxy)-1-(3,3-dichloro-2-propenyloxy)benzene] | “−” or “+” | – |
| 74.7 | ClC(Cl)=CCOc1cc(Cl)c(OCCSc2ccncc2)c(Cl)c1 [Compound 19, 3,5-Dichloro-4-(2-(4-pyridylthio)ethoxy)-1-(3,3-dichloro-2-propenyloxy)benzene] | – | – |
| 48.3 | ClC(Cl)=CCOc1cc(Cl)c(OCCCc2cccnc2)c(Cl)c1 [Compound 20, 3,5-Dichloro-4-(3-(3-pyridyl)propyloxy)-1-(3,3-dichloro-2-propenyloxy)benzene] | – | – |
| 92.3 | O=C(OCCCOc1c(Cl)cc(OCC=C(Cl)Cl)cc1Cl)c1cnc2ccccc2c1 [Compound 28, 3-(2,6-Dichloro-4-(3,3-dichloro-2-propenyloxy)phenoxy)propyl 3-quinolinate] | – | – |
| – | ClC(Cl)=CCOc1cc(Cl)c(OCCCSc2ccccn2)c(Cl)c1 [Compound 30, 3,5-Dichloro-4-(3-(2-pyridylthio)propyloxy)-1-(3,3-dichloro-2-propenyloxy)benzene] | “−” or “+” | – |
| 61.2 | ClC(Cl)=CCOc1cc(Cl)c(OCCc2nc3ccccc3o2)c(Cl)c1 [Compound 32, 3,5-Dichloro-4-(2-(2-benzoxazolyl)ethoxy)-1-(3,3-dichloro-2-propenyloxy)benzene] | “−” or “+” | – |
| – | CC(C)(COc1c(Cl)cc(OCC=C(Cl)Cl)cc1Cl)Oc1cccc(Cl)n1 [Compound 33, 3,5-Dichloro-4-(2-methyl-2-(2-(6-chloro)pyridyloxy)propyloxy)-1-(3,3-dichloro-2-propenyloxy)benzene] | “−” or “+” | – |
| – | FC(F)(F)c1ccc(OCCCOc2c(Cl)cc(OCC=C(Cl)Cl)cc2Cl)nc1 [Compound 36, 3,5-Dichloro-4-(3-(5-trifluoromethyl-2-pyridyloxy)propyloxy)-1-(3,3-dichloro-2-propenyloxy)benzene] | – | mortality at 100 ppm [3]: ≥ 80%; mortality at 50 ppm [4]: ≥ 80% |
| – | FC(F)(F)c1cnc(OCCCOc2c(Cl)cc(OCC=C(Cl)Cl)cc2Cl)c(Cl)c1 [Compound 37, 3,5-Dichloro-4-(3-(3-chloro-5-trifluoromethyl-2-pyridyloxy)propyloxy)-1-(3,3-dichloro-2-propenyloxy)benzene] | – | mortality at 50 ppm [4, 5]: ≥ 80% |
| 120.7 | ClC(Cl)=CCOc1cc(Cl)c(OCCCSc2nc3ccccc3[nH]2)c(Cl)c1 [Compound 39, 3,5-Dichloro-4-(3-(2-benzimidazolylthio)propyloxy)-1-(3,3-dichloro-2-propenyloxy)benzene] | – | – |
| – | FC(F)(F)c1ccc(OCCCCOc2c(Cl)cc(OCC=C(Cl)Cl)cc2Cl)nc1 [Compound 42, 3,5-Dichloro-4-(4-(5-trifluoromethyl-2-pyridyloxy)butyloxy)-1-(3,3-dichloro-2-propenyloxy)benzene] | – | mortality at 100 ppm [3, 6]: ≥ 80%; mortality at 50 ppm [4, 5]: ≥ 80% |
| – | FC(F)(F)c1ccc(OCCCCCOc2c(Cl)cc(OCC=C(Cl)Cl)cc2Cl)nc1 [Compound 43, 3,5-Dichloro-4-(5-(5-trifluoromethyl-2-pyridyloxy)pentyloxy)-1-(3,3-dichloro-2-propenyloxy)benzene] | – | mortality at 100 ppm [3, 6]: ≥ 80% |
| 76.2 | ClC(Cl)=CCOc1cc(Cl)c(NCCCOc2ccccn2)c(Cl)c1 [Compound 71, 3,5-Dichloro-4-(3-(2-pyridyloxy)propylamino)-1-(3,3-dichloro-2-propenyloxy)benzene] | – | – |
